Values belong to the compound of their own block, whether it stands above or below them.
Target: T1, Human CXCR4 transfected HEK293 cells (Homo sapiens, UniProt P61073)
T1 construct: expressed in transfected cells; host or cells: HEK293
Assay: CXCR4 functional calcium assay (calcium flux FLIPR, antagonism of SDF1 response)
Format: cell-based
Conditions: CXCR4 functional activity, antagonism of SDF1 (EC50 concentration), read-out: CXCR4 fKi
Outline: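 HEK293 cells stably transfected with human CXCR4 were loaded with 2 μM Fluo-4 AM in HBSS containing 2.5 mM probenecid, 0.1% BSA and 10 mM HEPES at pH 7.4 and 37° C. Compound was added first, then SDF1 at its EC50 concentration, and intracellular calcium fluorescence was followed on a FLIPR. Antagonist dose-response curves were fitted.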

T1 sequence (P61073 whole entry): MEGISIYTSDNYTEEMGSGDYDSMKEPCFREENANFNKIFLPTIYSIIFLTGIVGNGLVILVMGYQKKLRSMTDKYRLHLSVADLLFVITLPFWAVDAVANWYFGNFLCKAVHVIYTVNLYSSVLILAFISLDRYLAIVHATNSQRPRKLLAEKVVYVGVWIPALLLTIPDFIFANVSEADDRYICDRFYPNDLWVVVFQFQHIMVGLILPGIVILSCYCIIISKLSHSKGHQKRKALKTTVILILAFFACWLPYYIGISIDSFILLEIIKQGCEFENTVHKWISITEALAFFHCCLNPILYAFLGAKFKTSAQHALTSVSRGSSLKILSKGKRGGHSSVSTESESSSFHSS

Structure (SMILES): CC(C)N1CCC(N2CC3CC(C2)N(c2cccc(C(=O)NCC4CC4)n2)C3)CC1 (stereo not drawn) [Example 200, N-(Cyclopropylmethyl)-6-{3-[1-(propan-2-yl)piperidin-4-yl]-3,6-diazabicyclo[3.2.1]octan-6-yl}pyridine-2-carboxamide]
Ki: 0.5 to 1 µM

Structure (SMILES): CC(C)N1CCOCC1CCN1CCCN(c2cccc(C(=O)Nc3ccncc3)n2)CC1 (stereo not drawn) [Example 201, 6-(4-{2-[4-(Propan-2-yl)morpholin-3-yl]ethyl}-1,4-diazepan-1-yl)-N-(pyridin-4-yl)pyridine 2-carboxamide]
Ki: 0.1 to 0.5 µM

Structure (SMILES): CC(C)N1CCN(C)[C@H](CN2CCCN(c3cccc(C(=O)Nc4ccncc4)n3)CC2)C1 [Example 202, 6-(4-{[(2R)-1-Methyl-4-(propan-2-yl)piperazin-2-yl]methyl}-1,4-diazepan-1-yl)-N-(pyridin-4-yl)pyridine-2-carboxamide]
Ki: 0.5 to 1 µM

Structure (SMILES): [2H]C1([2H])CCN(c2cccc(C(=O)Nc3ccncc3)n2)CCN1C1CCN(Cc2ccc(F)cc2Cl)CC1 [Example 203, 6-(4-{1-[(2-Chloro-4-fluorophenyl)methyl]piperidin-4-yl}-5,5-dihydrogenio-1,4-diazepan-1-yl)-N-(pyridin-4-yl)pyridine-2-carboxamide]
Ki: < 0.02 µM

Structure (SMILES): [2H]C1([2H])CCN(c2cccc(C(=O)Nc3ccncc3)n2)CCN1C1CCN(Cc2ccccc2Cl)CC1 [Example 204, 6-(4-{1-[(2-Chlorophenyl)methyl]piperidin-4-yl}-5,5-dihydrogenio-1,4-diazepan-1-yl)-N-(pyridin-4-yl)pyridine-2-carboxamide]
Ki: < 0.02 µM

Structure (SMILES): [2H]C1([2H])CCN(C2CCN(Cc3ccc(F)cc3Cl)CC2)CCN1c1cccc(C(=O)Nc2ccncc2)n1 [Example 205, 6-(4-{1-[(2-Chloro-4-fluorophenyl)methyl]piperidin-4-yl}-7,7-dihydrogenio-1,4-diazepan-1-yl)-N-(pyridin-4-yl)pyridine-2-carboxamide]
Ki: < 0.02 µM

Structure (SMILES): O=C(Nc1ccncc1)c1cccc(N2CC3CCC(C2)N(C2CCN(Cc4ccccc4Cl)CC2)C3)n1 (stereo not drawn) [Example 208, 6-(6-{1-[(2-Chlorophenyl)methyl]piperidin-4-yl}-3,6-diazabicyclo[3.2.2]nonan-3-yl)-N-(pyridin-4-yl)pyridine-2-carboxamide]
Ki: 0.1 to 0.5 µM

Structure (SMILES): O=C(Nc1ccncc1)c1cccc(N2CC3CCC(C2)N(C2CCN(Cc4ccc(F)cc4Cl)CC2)C3)n1 (stereo not drawn) [Example 209, 6-(6-{1-[(2-Chloro-4-fluorophenyl)methyl]piperidin-4-yl}-3,6-diazabicyclo[3.2.2]nonan-3-yl)-N-(pyridin-4-yl)pyridine-2-carboxamide]
Ki: 0.1 to 0.5 µM

Structure (SMILES): CC(C)N1CCC(N2C3CCCC2CN(c2cccc(C(=O)NCC4CC4)n2)CC3)CC1 (stereo not drawn) [Example 217, N-(Cyclopropylmethyl)-6-{10-[1-(propan-2-yl)piperidin-4-yl]-3,10-diazabicyclo[4.3.1]decan-3-yl}pyridine-2-carboxamide]
Ki: 0.1 to 0.5 µM

Structure (SMILES): O=C(Nc1ccncc1)c1cccc(N2CCC3CCCC(C2)N3C2CCN(Cc3ccccc3Cl)CC2)n1 (stereo not drawn) [Example 218, 6-(10-{1-[(2-Chlorophenyl)methyl]piperidin-4-yl}-3,10-diazabicyclo[4.3.1]decan-3-yl)-N-(pyridin-4-yl)pyridine-2-carboxamide]
Ki: 0.1 to 0.5 µM

Next, values leading:

Ki: < 0.02 µM
Structure (SMILES): [2H]C1([2H])CCN(c2cccc(C(=O)Nc3ccncc3)n2)CC(C)N1C1CCN(Cc2ccccc2Cl)CC1 (stereo not drawn) [Example 206, 6-(4-{1-[(2-Chlorophenyl)methyl]piperidin-4-yl}-5,5-dihydrogenio-3-methyl-1,4-diazepan-1-yl)-N-(pyridin-4-yl)pyridine-2-carboxamide]

Ki: < 0.02 µM
Structure (SMILES): [2H]C1([2H])CCN(c2cccc(C(=O)Nc3ccncc3)n2)CC(C)N1C1CCN(Cc2ccc(F)cc2Cl)CC1 (stereo not drawn) [Example 207, 6-(4-{1-[(2-Chloro-4-fluorophenyl)methyl]piperidin-4-yl}-5,5-dihydrogenio-3-methyl-1,4-diazepan-1-yl)-N-(pyridin-4-yl)pyridine-2-carboxamide]

Ki: < 0.02 µM
Structure (SMILES): CC(C)N1CCC(N2CCCN(c3cccc(C(=O)Nc4ccncc4)n3)CC2)C(F)C1 (stereo not drawn) [Example 210, 6-{4-[3-Fluoro-1-(propan-2-yl)piperidin-4-yl]-1,4-diazepan-1-yl}-N-(pyridin-4-yl)pyridine-2-carboxamide]

Ki: 0.02 to 0.1 µM
Structure (SMILES): [2H]C1([2H])CCN(C2CCN(C(C)C)CC2F)CCN1c1cccc(C(=O)Nc2ccncc2)n1 (stereo not drawn) [Example 211, 6-{4-[3-Fluoro-1-(propan-2-yl)piperidin-4-yl]-7,7-dihydrogenio-1,4-diazepan-1-yl}-N-(pyridin-4-yl)pyridine-2-carboxamide]

Ki: 0.1 to 0.5 µM
Structure (SMILES): CC(C)N1CCC(N2CCCN(c3cccc(-c4ncc(C5CC5)[nH]4)n3)CC2)C(F)C1 (stereo not drawn) [Example 212, 1-[6-(4-Cyclopropyl-1H-imidazol-2-yl)pyridin-2-yl]-4-[3-fluoro-1-(propan-2-yl)piperidin-4-yl]-1,4-diazepane]

Ki: 0.02 to 0.1 µM
Structure (SMILES): Cc1nc(-c2cccc(N3CCCN(C4CCN(C(C)C)CC4F)CC3)n2)[nH]c1C1CC1 (stereo not drawn) [Example 213, 1-[6-(4-Cyclopropyl-5-methyl-1H-imidazol-2-yl)pyridin-2-yl]-4-[3-fluoro-1-(propan-2-yl)piperidin-4-yl]-1,4-diazepane]

Ki: 0.1 to 0.5 µM
Structure (SMILES): Cc1nc(-c2cccc(N3CCCN(C4CCN(C5CCCC5)CC4F)CC3)n2)[nH]c1C1CC1 (stereo not drawn) [Example 214, 1-(1-Cyclopentyl-3-fluoropiperidin-4-yl)-4-[6-(4-cyclopropyl-5-methyl-1H-imidazol-2-yl)pyridin-2-yl]-1,4-diazepane]

Ki: 0.02 to 0.1 µM
Structure (SMILES): CC(C)N1CCC(N2CCCN(c3cccc(C(=O)NCc4cccnc4)n3)CC2)CC1C (stereo not drawn) [Example 215, 6-{4-[2-Methyl-1-(propan-2-yl)piperidin-4-yl]-1,4-diazepan-1-yl}-N-(pyridin-3-ylmethyl)pyridine-2-carboxamide]

Ki: 0.1 to 0.5 µM
Structure (SMILES): CC(C)N1CC[C@@H](N2CCCN(c3cccc(C(=O)NCC4CC4)n3)CC2)[C@H](O)C1 [Example 216, N-(Cyclopropylmethyl)-6-{4-[(3R)-3-hydroxy-1-(propan-2-yl)piperidin-4-yl]-1,4-diazepan-1-yl}pyridine-2-carboxamide]

Ki: 0.1 to 0.5 µM
Structure (SMILES): CCCC(=O)c1cccc(N2CCCN(C3CCN(C(C)C)CC3)CC2)n1 [Example 219, 1-(6-{4-[1-(Propan-2-yl)piperidin-4-yl]-1,4-diazepan-1-yl}pyridin-2-yl)butan-1-one]

Ki: 0.02 to 0.1 µM
Structure (SMILES): CC(C)N1CCC(N2CCCN(c3cccc(C(=O)Cc4ccccc4)n3)CC2)CC1 [Example 220, 2-Phenyl-1-(6-{4-[1-(propan-2-yl)piperidin-4-yl]-1,4-diazepan-1-yl}pyridin-2-yl)ethan-1-one]

Ki: 0.1 to 0.5 µM
Structure (SMILES): CC(C)N1CCCC(N2CCC(Oc3cccc(C(=O)Nc4ccncc4)n3)CC2)CC1 (stereo not drawn) [Example 221, 6-({1-[1-(Propan-2-yl)azepan-4-yl]piperidin-4-yl}oxy)-N-(pyridin-4-yl)pyridine-2-carboxamide]

Ki: 0.5 to 1 µM
Structure (SMILES): CC(C)N1CCC(N2CCCC(Nc3cccc(C(=O)Nc4ccncc4)n3)C2)CC1 (stereo not drawn) [Example 222, 6-({1-[1-(Propan-2-yl)piperidin-4-yl]piperidin-3-yl}amino)-N-(pyridin-4-yl)pyridine-2-carboxamide]

Ki: 0.5 to 1 µM
Structure (SMILES): CC(C)N1CCC(CN[C@@H]2CCN(c3cccc(-c4ncc(C5CC5)[nH]4)n3)C2)CC1 [Example 223, (3R)-1-[6-(4-Cyclopropyl-1H-imidazol-2-yl)pyridin-2-yl]-N-{[1-(propan-2-yl)piperidin-4-yl]methyl}pyrrolidin-3-amine]
